Data on three compounds can be found in patent US20220204479A1, “PYRIMIDINE COMPOUND AND PREPARATION METHOD THEREFOR” (Wuhan Humanwell Innovative Drug Research And Development …, priority 2019, published 2022).

One series has as its target T1, autotaxin (ATX) enzyme (Homo sapiens, UniProt Q13822).
T1 construct: purchased Cayman 700580
Put plainly: Autotaxin (ATX) enzyme activity inhibition test (Cayman Autotaxin Inhibitor Screening Assay Kit). The settings on record: 37° C., 30 min, OD405, read-out: IC50, inhibitory effect on ATX enzyme activity. It is filed as biochemical. Here is the method:
The inhibitory effects of the compounds on the autotaxin enzyme were detected using the Autotaxin Inhibitor Screening Assay Kit (Cayman, 700580). […] Subsequently, the 8 concentrations were diluted with Autotaxin Assay buffer (1×) provided in the kit into 19× compound working solutions (DMSO content was 1.9%). The Autotaxin Assay Reagent (10×) was taken out and diluted by 10 times with Autotaxin Assay Buffer (1×). The Autotaxin Substrate was taken out, dissolved by adding 1.2 mL of Autotaxin Assay Buffer (1×), mixed evenly and let stand by at room temperature. In a 96-well plate, 150 μL of Autotaxin Assay Buffer (1×), 10 μL of the prepared and diluted 19× compound working solution, 10 μL of Autotaxin Assay Reagent (1×), and 20 μL of the dissolved Autotaxin Substrate were added to each of the wells for each concentration, and homogenously mixed. The 96-well plate was shaken in a constant temperature shaker at 37° C. and incubated in the dark for 30 min, and then the plate was taken out and placed on a microplate reader to read OD405.

Series [1] concerns the target T2, ATX enzyme in human plasma (Homo sapiens, UniProt Q13822).
T2 construct: Whole blood was collected from healthy volunteers and anticoagulated with heparin; from tissue; host or cells: human plasma (heparin) from healthy volunteers
The series is described as follows: Inhibition of activity of ATX enzyme in human plasma (LPA18:2 formation, LC-MSMS). The series is classed as biochemical. The settings on record: for inhibitory effect on ATX enzyme in human plasma compared with control compounds 1 and 2: comparison in words; for IC50: human plasma, 37° C., 3 h, LPA18:2 formation, read-out: IC50, inhibitory effect on activity of ATX enzyme in human plasma. Here is the method: Whole blood was collected from healthy volunteers and anticoagulated with heparin. The blood collection tubes were centrifuged at 3,000 rpm for 10 min, and the plasma was taken and stored at −80° C. for use.
The compound was serially diluted with DMSO according to the conventional concentration requirements, then 3 μL of each of the diluted compound solutions was added to a 96-well plate, and 147 μL of PBS was added to each well containing 3 μL of the compound solution. After mixing homogenously, 50 μL of the mixture was taken out and added to a new 96-well plate. The human plasma was taken out from the −80° C. refrigerator and thawed through rapid shaking in a 37° C. water bath. 50 μL of the human plasma was taken and added to the 96-well plate containing 50 μL of the diluted compound (the final system contained 1% DMSO). The group without the compound was set as the positive group. The 96-well plate was shaken and mixed uniformly, and incubated at 37° C. for 3 h. A blank group was also provided, and the plasma of the blank group was stored at −80° C. The blank group is provided to determine the baseline concentration of endogenous LPA.
After the incubation was finished, the blank group was thawed on ice and transferred to an incubation plate. Excess acetonitrile containing the internal standard LPA17: 0 was added to the incubation plate to precipitate the plasma protein. After vortex centrifugation, the supernatant was taken and diluted, and a peak area of LPA18: 2 and a peak area of internal standard LPA17: 0 were detected using LC-MSMS mass spectrometry.
(§1) A ratio of the peak area of LPA18: 2 to the peak area of internal standard LPA17: 0 was calculated, and a formation inhibition rate of LPA18: 2 was calculated according to the following formula:
(§2) Inhibition rate (%)=100−(compound group with different concentrations−blank group)/(positive group−blank group)*100
According to the inhibition rates of different concentrations of the compound, the IC50 value of the compound for inhibiting activity of ATX enzyme in human plasma was calculated.

A further series has as its target T3, ATX enzyme in rat plasma (Rattus norvegicus, UniProt Q64610).
T3 construct: Whole blood was collected from rats and anticoagulated with heparin; from tissue; host or cells: rat plasma (heparin)
The series is described as follows: Inhibition of activity of ATX enzyme in rat plasma (LPA18:2 formation, LC-MSMS). The settings on record: for inhibitory activity on ATX enzyme in rat plasma compared with control compounds 1 and 2: comparison in words. It is filed as biochemical. The procedure: Whole blood was collected from rats and anticoagulated with heparin. The blood collection tubes were centrifuged at 3,000 rpm for 15 min, and the plasma was placed on ice for use.
The compound was serially diluted with DMSO: 30% ACN=1:19 according to the conventional concentration requirements, and then placed on ice. 147 μL of plasma, which was placed on ice, was added to a 96-well plate, and then 3 μL of each of the gradient solutions of the compound (finally 1[…] DMSO) was added. A group containing none of the compounds was set as the positive group. The 96-well plate was mixed uniformly, and incubated at 37° C. for 3 h. In addition, a blank group was also provided. At the beginning of the incubation, the plasma of blank group was added to with excessive acetonitrile containing the internal standard LPA17: 0 to precipitate the plasma protein, vortexed to mix, and stored at 4° C. The blank group was provided to determine the baseline concentration of endogenous LPA.
A peak area of LPA18: 2 and a peak area of internal standard LPA17: 0 were detected using LC-MSMS mass spectrometry.
as §1, §2
According to the inhibition rates of different concentrations of the compound, the IC50 value of the compound for inhibiting activity of ATX enzyme in rat plasma, was calculated.

Series [2] is described as follows: Pharmacokinetic test in rats. The series is classed as in vivo. The settings on record: male SD rats, oral gavage 10 mg/kg. Here is the method:
(§3) For the pharmacokinetic test of rats, 3 male SD rats (180-240 g) were used, and fasted overnight. The rats were orally administered by gavage (10 mg/kg). […] The blood samples were centrifuged at 8,000 rpm at 4° C. for 6 min, and plasma was collected and stored at −20° C. The plasma at each time point was taken and added with an acetonitrile solution containing internal standard in 3 to 5 times the amount, vortexed and mixed for 1 min, and centrifuged at 13,000 rpm at 4° C. for 10 min. The supernatant was collected, added with water in 3 times the amount, and mixed. An appropriate amount of the mixture was taken for LC-MS/MS analysis. The main pharmacokinetic parameters were analyzed using WinNonlin 7.0 software with non-compartmental model.

A short description of series [3]: Pharmacokinetic test in mice. The series is classed as in vivo. The following applies: mouse, plasma; male CD-1 mice, oral gavage 10 mg/kg. The procedure: as §3, with “mice,” for “rats, 3”, “CD-1 mice (20 g to 25” for “SD rats (180-240”, “mice” for “rats”
Series [4] in a line: Pharmacokinetic test in canines. The following applies: dog, plasma; male beagle dogs, oral gavage 5 mg/kg. The series is classed as in vivo. The procedure: as §3
For the pharmacokinetics test of canines, 3 male beagle dogs (8 to 10 kg) were used, and fasted overnight. The dogs were orally administered by gavage (5 mg/kg). The rest of the operation is the same as the pharmacokinetic test in rats.

Series [5] has as its target T4, hERG channels (CHO cell line stably expressing hERG) (Homo sapiens, UniProt Q12809). The series is described as follows: cell-based.
Protocol: (§4) Full-automatic electrophysiological patch clamp QPatch was used to detect the inhibitory effect of compounds on hERG. Cells used in this test were CHO cell line transfected with cDNA of hERG and stably expressing hERG channels (provided by Sophion Bioscience, Denmark), and the cell passage number was P24. The cells were cultured in a medium containing the following components (all purchased from Invitrogen): Ham's F12 medium, inactivated fetal bovine serum (10% (v/v)), hygromycin B (100 μg/ml), and Geneticin (100 μg/ml). CHO hERG cells were grown in a petri dish containing the above-mentioned medium and cultured in an incubator at 37° C. and containing 5% CO2.
(§5) The test compound was prepared into a 10 mM stock solution in DMSO solvent, the compound was diluted to 3 mM, 1 mM, 0.3 mM, and 0.1 mM with DMSO, and then the compound was diluted to 30 μM, 10 μM, 3 μM, 1 μM, 0.3 μM and 0.1 μM with the extracellular fluid, so that except that the final concentration of DMSO in the 30 μM compound was 0.3%, the final concentration of DMSO in compound solutions of all other concentrations was 0.10%.
(§6) The CHO hERG cells, after being digested and resuspended, were added to the full-automatic QPatch system (Sophion, Denmark), and subjected to a test according to the following preset procedure.
(§7) After reaching the ruptured whole cell configuration state in the initial stage, the whole cell current was recorded at room temperature (about 25° C.) for at least 120 seconds in order to achieve stability. The stable cells were selected for the test. During the whole test, the cells were clamped at a voltage of −80 mV, the cell clamp voltage was depolarized to +20 mV to activate the hERG potassium channels, and after 2.5 seconds, the cell clamp voltage was at −50 mV to eliminate inactivation and generate outward tail current. The peak tail current was used as the value of the hERG current. The voltage mode described above was applied to the cells for electrophysiological test every 15 seconds. An intracellular liquid containing 0.1% dimethyl sulfoxide (solvent) was added to the cells to establish a baseline, and then the current was allowed to stabilize for 3 min. After the compound solution was added, the cells were kept in the test environment until the effect of the compound reached a steady state or until reaching 4 min. In the test experiments with different concentration gradients of the compound, the compound was added from low to high concentration to the clamped cells. After the compound test was finished, the cells were washed with the extracellular fluid until the current returned to a stable state. The test data was analyzed by Qpatch analysis software provided by Sophion, Excel, and Graphpad Prism, etc.
The nature of series [6]: Human liver microsome stability test. The settings on record: for Remaining percentage (%) of compound after incubation for 30 min: NADPH, 37° C.; for half-life at 1 µM: human.
Protocol: The human liver microsome stability test was performed by incubating the compound and human liver microsomes in vitro for detection. First, the test compound was prepared into a 10 mM stock solution in DMSO solvent, and then the compound was diluted to 0.5 mM with acetonitrile. Human liver microsomes (Corning) were diluted with PBS and prepared as a microsome/buffer solution, which was used to dilute the 0.5 mM compound solution into a working solution. […] A deep-well multi-well plate was taken, 30 μL of the working solution and 15 μL of pre-warmed NADPH solution (6 mM) were sequentially added to each well to initiate a reaction, and the reaction was incubated at 37° C. […] After centrifugation, the supernatant was collected, and added with purified water in a ratio of 1:1 to perform LC-MS/MS detection. […] T1/2 was calculated by using Excel.
Series [7] addresses T4, hERG channels (CHO cell line stably expressing hERG). The series is described as follows: Inhibitory effect on hERG by full-automatic electrophysiological patch clamp QPatch. The settings on record: hERG IC50 (μM) divided by ATX enzyme IC50 (nM). Background: Block of hERG is tested as a sign of cardiac risk.
Protocol: as §4, §5, §6, §7
Series [8] in a line: Thermodynamic solubility test. It is filed as physicochemical. The settings on record: thermodynamic from solid. The procedure:
The compound was accurately weighed, and the prepared phosphate buffer (pH 7.4), FeSSIF solution (pH 5.8) and FaSSGF solution (pH 1.6) were added to prepare a solution with a concentration of 4 mg/mL, which was shaken at 1,000 rpm for 1 hour, and then incubated overnight at room temperature. After the incubation, the solution was centrifuged at 12,000 rpm for 10 min to remove undissolved particles, and the supernatant was transferred to a new centrifuge tube. The supernatant was diluted appropriately, then added with an acetonitrile solution containing the internal standard, and quantified using a standard curve prepared with the same matrix.

Setting [9] is: rat plasma, 37° C., 3 h, LPA18:2 formation, read-out: IC50, inhibitory effect on activity of ATX enzyme in rat plasma.

Converted amounts (≈) assume the structure as drawn. Where two headings read alike, the source gives them in different places.

T4 sequence (Q12809 whole entry): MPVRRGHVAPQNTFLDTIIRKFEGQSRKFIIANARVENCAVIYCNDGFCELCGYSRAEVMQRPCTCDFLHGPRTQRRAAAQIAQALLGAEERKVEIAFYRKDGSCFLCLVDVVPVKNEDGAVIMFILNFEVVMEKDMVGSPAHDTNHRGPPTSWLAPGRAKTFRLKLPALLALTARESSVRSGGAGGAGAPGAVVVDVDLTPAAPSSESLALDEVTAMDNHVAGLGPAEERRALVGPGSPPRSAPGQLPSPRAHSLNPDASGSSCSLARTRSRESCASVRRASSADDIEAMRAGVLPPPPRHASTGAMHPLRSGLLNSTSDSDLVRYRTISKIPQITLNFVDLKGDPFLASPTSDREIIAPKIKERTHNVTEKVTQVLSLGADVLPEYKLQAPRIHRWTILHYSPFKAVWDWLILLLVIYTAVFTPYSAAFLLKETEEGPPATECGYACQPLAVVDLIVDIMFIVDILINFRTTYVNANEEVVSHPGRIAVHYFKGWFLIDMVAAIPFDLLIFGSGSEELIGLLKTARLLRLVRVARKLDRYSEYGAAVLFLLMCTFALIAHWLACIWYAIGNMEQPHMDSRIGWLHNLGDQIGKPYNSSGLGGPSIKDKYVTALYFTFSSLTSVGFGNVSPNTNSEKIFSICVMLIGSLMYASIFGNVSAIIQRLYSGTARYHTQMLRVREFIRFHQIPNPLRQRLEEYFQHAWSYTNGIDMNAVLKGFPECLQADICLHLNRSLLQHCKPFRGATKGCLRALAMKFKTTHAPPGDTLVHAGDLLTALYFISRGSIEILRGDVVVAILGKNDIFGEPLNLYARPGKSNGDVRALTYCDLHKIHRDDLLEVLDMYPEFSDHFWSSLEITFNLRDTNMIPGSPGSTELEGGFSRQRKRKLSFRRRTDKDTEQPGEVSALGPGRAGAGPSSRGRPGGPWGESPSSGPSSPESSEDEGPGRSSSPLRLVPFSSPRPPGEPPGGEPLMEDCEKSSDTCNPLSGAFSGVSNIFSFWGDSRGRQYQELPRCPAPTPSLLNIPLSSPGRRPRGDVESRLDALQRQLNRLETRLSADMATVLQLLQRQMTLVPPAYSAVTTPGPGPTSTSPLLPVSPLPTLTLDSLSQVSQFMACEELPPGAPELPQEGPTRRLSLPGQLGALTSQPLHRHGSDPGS

As for `O=C(c1cnc(NC2Cc3ccccc3C2)nc1)N1CC2(CC(OCc3c[nH]nn3)C2)C1` [Compound I-9, (6-((1H-1,2,3-triazol-4-yl)methoxy)-2-azaspiro[3.3]heptan-2-yl)(2-((2,3-dihydro-1H-inden-2-yl)amino)pyrimidin-5-yl)methanone], the IC50 at autotaxin (ATX) enzyme amounted to 1.43 nM; in [1], 2.74 nM; at ATX enzyme in rat plasma (setting [9]), 2.83 nM; in [5], 13400 nM. The “inhibitory effect on ATX enzyme in human plasma compared with control compounds 1 and 2” value in [1] is “higher inhibitory effect on ATX enzyme in human plasma than the control compounds 1 and 2”. For the same compound, the “inhibitory activity on ATX enzyme in rat plasma compared with control compounds 1 and 2” value against ATX enzyme in rat plasma is “higher inhibitory activity on ATX enzyme in rat plasma than the control compounds 1 and 2”. Also, the Tmax was determined as 25.2 min in [2] (Sprague-Dawley, rat, in vivo); 19.8 min in [3]; 70.2 min in series [4]. Further, the AUC(0-t) stood at 1410 ng·h/mL in series [2] (Sprague-Dawley, rat, in vivo, read-out: AUC0-t); 4590 ng·h/mL in series [3]; 9410 ng·h/mL in series [4]. Moreover, the highest concentration (Cmax) in [2] (Sprague-Dawley, rat, in vivo, read-out: Cmax) turned out to be 973 ng/mL; in series [3], 3870 ng/mL; in series [4], 2090 ng/mL. Moreover, in series [6] (human liver microsomes), the “Remaining percentage (%) of compound after incubation for 30 min” value (shortened to “Remaining percentage (%) of compound”) is 95.5%. Besides, the half-life at 1 µM in series [6] (microsomes) came out at 242 min. Further, the “hERG IC50/ATX IC50” value in series [7] is 13.4/1.43 = 9.37.
Turning to `O=C(COCCc1cnn[nH]1)N1Cc2cnc(NC3Cc4ccccc4C3)nc2C1` [Control compound 1, reference compound], the IC50 at ATX enzyme in rat plasma amounted to 13.6 nM; in [5], 6690 nM. Also, the time to peak (Tmax) in [2] (Sprague-Dawley, rat, plasma) came out at 25.2 min; in series [3], 15 min; in series [4], 60 min. Besides, the AUC(0-t) came to 4874 ng·h/mL in [2], 2570 ng·h/mL in [3] and 10100 ng·h/mL in [4]. The values for the Cmax in series [2], in series [3] and in series [4] were 2591 ng/mL, 1500 ng/mL and 2390 ng/mL, respectively. The solubility was 66.5 µg/mL (≈ 164 µM) in [8] (FaSSGF solution, fassgf or other biorelevant, FaSSGF pH 1.6, overnight at room temperature, read-out: Solubility, FaSSGF (pH 1.6)); 18.3 µg/mL (≈ 45.1 µM) in series [8] (FeSSIF solution, FeSSIF pH 5.8, overnight at room temperature, read-out: Solubility, FeSSIF (pH 5.8)); 6.3 µg/mL (≈ 15.5 µM) in series [8] (phosphate buffer (PBS), aqueous buffer, PBS pH 7.4, overnight at room temperature, read-out: Solubility, PBS (pH 7.4)). The “Remaining percentage (%) of compound” value in [6] (human liver microsomes) was found to be 41.2%. This compound also had a half-life at 1 µM in series [6] (microsomes) of 24.1 min.
On to `O=C(c1cnc(NC2Cc3ccccc3C2)nc1)N1CCC(COCc2cn[nH]n2)CC1` [Compound I-1, (4-(((2H-1,2,3-triazol-4-yl)methoxy)methyl)piperidin-1-yl)(2-((2,3-dihydro-1H-inden-2-yl)amino)pyrimidin-5-yl)methanone], for which the concentration for half-maximal inhibition (IC50) at autotaxin (ATX) enzyme is 2.05 nM; in series [1], 8.73 nM; at ATX enzyme in rat plasma (setting [9]), 6.49 nM; in series [5] it was 7930 nM. The “inhibitory effect on ATX enzyme in human plasma compared with control compounds 1 and 2” value in series [1] was “higher inhibitory effect on ATX enzyme in human plasma than the control compounds 1 and 2”. In addition, the “inhibitory activity on ATX enzyme in rat plasma compared with control compounds 1 and 2” value against ATX enzyme in rat plasma is “higher inhibitory activity on ATX enzyme in rat plasma than the control compounds 1 and 2”. The Tmax in [2] (Sprague-Dawley, rat, plasma) was 30 min; in series [3], 25.2 min; in [4] it was 70.2 min. Moreover, the AUC(0-t) in [2] (Sprague-Dawley, rat, plasma, read-out: AUC0-t) is 5720 ng·h/mL; in series [3], 2390 ng·h/mL; in [4] it was 17600 ng·h/mL. Also, the peak concentration (Cmax) was 3180 ng/mL in [2] (Sprague-Dawley, rat, plasma, read-out: Cmax); 1860 ng/mL in [3]; 3670 ng/mL in [4]. For the same compound, the “Remaining percentage (%) of compound” value in [6] (human liver microsomes) was 85.6%. The compound further registered a half-life at 1 µM in series [6] (human liver microsomes) of 99 min. Also, in [7], the “hERG IC50/ATX IC50” value is listed as 7.93/2.05 = 3.87.

For orientation: IC50 means the midpoint of a concentration-inhibition curve. One may read the Tmax as the time at which the peak concentration occurs. As usually defined, the Cmax is the maximum level reached in the sampled fluid or tissue. As usually defined, the half-life is the time needed for the level to fall by half in the phase considered. Low values mean rapid decline, high ones slow decline. By solubility is commonly meant how much of the substance goes into solution per volume.
